Structures are written as SMILES.

As a reminder, the EC50 is the concentration giving half of the maximal effect.

The test system of one assay is U2OS_Bim cells. Nature of the assay: Apoptosis inhibition assay (Bim-induced apoptosis, cell viability by ATP level). Format: cell-based. As to conditions: U2OS_Bim cells; estimated (*Est.) / preliminary results; numbering of Tables 4a/4b; read-out: EC50. The protocol: A chemical library containing 200000 compounds was screened according to the following procedure: U2OS_Bim cells (a cell line in which the BH3-only protein Bim can be inducibly expressed by the addition of Doxycycline to the growth medium)^[2] were plated in 384-well plates with 30 μl medium at a density of 500 cells per well. 16 hrs after plating, test compounds were transferred from stock plates to the assay plates with the cultured cells. Positive control (20 μM zVAD) and negative control (DMSO) were added to every plate. 1 hr after compound treatment, 0.1 ug/mL Doxycyclin (DOX) was added to induce the expression of the Bim protein. After 24 hrs, cell viability was determined by measuring the ATP levels using a Cell Titer-Glo kit (Promega, G7570) according to the manufacturer's instructions. Luminescence was recorded with a PerkinElmer EnSpire Multimode Plate Reader. Compounds that could rescue cell viability to a level above 50% were selected; these compounds were then screened a second time for assurance.
U2OS_Bim or U2OS_tBid cells were plated at a density of 3000 cells per well in 96-well plates. 24 hrs later, cells were treated with experimental compounds, zVAD (positive control) and DMSO (Negative control) for one hour. The cells were then treated with 0.1 μg/mL DOX to trigger apoptosis. 24 hours after the addition of DOX, cell viability was determined by measuring the ATP levels using a Cell Titer-Glo kit. Cell survival rate was calculated.
U2OS_Bim cells (a U2OS stable cell line transfected with a Bim transgene) were cultured in DMEM culture medium (Gibico). On day one, U2OS_Bim cells were plated in 96-well plates at a density of 3000 cells per well. On day two, cells were pretreated with compounds for one hour. Then cells were treated with 0.1 μg/mL doxycycline (DOX) to trigger apoptosis. 24 hours after DOX treatment, cell viability was determined by measuring the ATP levels using the Cell Titer-Glo kit (G7570, Promega), according to the manufacturer's instructions. Luminescence was recorded with a PerkinElmer EnSpire Multimode Plate Reader. Survived cells were normalized to those cells treated with DMSO. zVAD (20 μM) was used as a positive control. Activity data for compounds […] are represented as means f standard deviation of duplicates; activity data for compounds 187-274 are estimated based on preliminary results.
In the case of `Cc1cc(-c2cc(F)c(=O)n(Cc3ccc4nnn(C)c4c3)c2)nc(S(=O)(=O)CCCN(c2ccccc2)C2CCC2)n1` [Compound 379], the 50% effective concentration (EC50) is 0.001 to 1 µM.

`Cc1cc(-c2cc(F)c(=O)n(Cc3ccc4c(c3)OCO4)c2)nc(S(=O)(=O)CCC(OCc2cccn2C)c2ccccc2)n1` (stereo not shown) [Compound 403]: the concentration for a half-maximal effect (EC50) is 0.001 to 1 µM.

Regarding `Cc1cc(-c2cc(F)c(=O)n(Cc3ccc4c(c3)OCO4)c2)nc(S(=O)(=O)CCC(OCC2COC2)c2ccccc2)n1` (stereo not shown) [Compound 417], the EC50 is 0.001 to 1 µM.

Turning to `Cc1cc(-c2cc(F)c(=O)n(Cc3ccc4c(c3)OCO4)c2)nc(S(=O)(=O)CCC(OCC2CN2C)c2ccccc2)n1` (stereo not shown) [Compound 420], the EC50 is 0.001 to 1 µM.

Turning to `Cc1cc(-c2cc(F)c(=O)n(Cc3ccc4c(c3)CCCO4)c2)nc(S(=O)(=O)CCC(OCc2ccccc2F)c2ccccc2)n1` (stereo not shown) [Compound 355], the 50% effective concentration (EC50) was 0.001 to 1 µM.

Turning to `Cc1cc(-c2cc(F)c(=O)n(Cc3ccc4cn(C)nc4c3)c2)nc(S(=O)(=O)CCC(OCc2ccccc2F)c2ccccc2)n1` (stereo not shown) [Compound 343], the EC50 was 0.001 to 1 µM.

In the case of `Cc1cc(-c2cc(F)c(=O)n(Cc3ccc4c(c3)OCO4)c2)nc(S(=O)(=O)CCCn2c(=O)oc3ccccc32)n1` [Compound 366], the EC50 was 0.001 to 1 µM.

Consider `Cc1cc(-c2cc(F)c(=O)n(Cc3ccc4c(c3)OCO4)c2)nc(S(=O)(=O)CCC(OCc2ccccc2F)c2cc3ccccc3n2C)n1` (stereo not shown) [Compound 387], for which the half-maximal effective concentration (EC50) was 0.001 to 1 µM.

Regarding `Cc1cc(-c2cc(F)c(=O)n(Cc3ccc4c(c3)OCO4)c2)nc(S(=O)(=O)CCCN(c2ccccc2)C(C)(C)C)n1` [Compound 377], the concentration giving a half-maximal response (EC50) was 0.001 to 1 µM.

Consider `Cc1cc(-c2cc(F)c(=O)n(Cc3ccc4c(c3)OCCN4C)c2)nc(S(=O)(=O)CCC(OCc2ccccc2F)c2ccccc2)n1` (stereo not shown) [Compound 357], for which the EC50 was 0.001 to 1 µM.

In the case of `Cc1cc(-c2cc(F)c(=O)n(Cc3ccc4c(c3)OCO4)c2)nc(S(=O)(=O)CCCC(=O)N(c2ccccc2)C(C)(C)C)n1` [Compound 371], the EC50 is 0.001 to 1 µM.

The assay is the same for the next values; noted with them: U2OS_Bim cells; estimated based on preliminary results; numbering of Tables 4a/4b; read-out: EC50.
Consider `CCC(=O)c1cc(-c2ccc(=O)n(Cc3ccc(OC)c(OC)c3)c2)nc(S(C)(=O)=O)n1` [Compound 269, 1-(3,4-dimethoxybenzyl)-5-(2-(methylsulfonyl)-6-propionylpyrimidin-4-yl)pyridin-2 (1H)-one], for which the EC50 was less than 10 µM.

As to `C[S+]([O-])c1nc(-c2ccc(=O)n(Cc3ccc4c(c3)NCCO4)c2)cc(C(F)(F)F)n1` (stereo not shown) [Compound 243], the concentration for a half-maximal effect (EC50) was less than 10 µM.

As to `C[S+]([O-])c1nc(-c2ccc(=O)n(Cc3ccc4ncccc4c3)c2)cc(C(F)(F)F)n1` (stereo not shown) [Compound 247], the half-maximal effective concentration (EC50) was less than 10 µM.

`COc1ccc(Cn2cc(-c3cc(-n4ccnc4)nc([S+](C)[O-])n3)ccc2=O)cc1OC` (stereo not shown) [Compound 221]: the 50% effective concentration (EC50) was less than 10 µM.

The same assay, now with this note: U2OS_Bim cells; means of duplicates; numbering of Tables 4a/4b; read-out: EC50.
With `CCCCCCNC(=O)CCC[S+]([O-])c1nc(-c2ccc(=O)n(Cc3ccc(OC)c(OC)c3)c2)cc(C(F)F)n1` (stereo not shown) [Compound 184, 4-((4-(difluoromethyl)-6-(1-(3,4-dimethoxybenzyl)-6-oxo-1,6-dihydropyridin-3-yl)pyrimidin-2-yl)sulfinyl)-N-hexylbutanamide], the EC50 is 0.001 to 1 µM.

Regarding `Cc1ccccc1-c1cc(C(F)(F)F)nc(S(C)(=O)=O)n1` [Compound 46, 2-(methylsulfonyl)-4-(o-tolyl)-6-(trifluoromethyl)pyrimidine], the concentration for a half-maximal effect (EC50) fell in the range of 1 to 20 µM.

For `Cc1cc(-c2cc(F)c(=O)n(Cc3ccc4ocnc4c3)c2)nc(S(=O)(=O)CCC(OCc2ccccc2F)c2ccccc2)n1` (stereo not shown) [Compound 329, 1-(benzo[d]oxazol-5-ylmethyl)-3-fluoro-5-(2-((3-((2-fluorobenzyl)oxy)-3-phenylpropyl)sulfonyl)-6-methylpyrimidin-4-yl)pyridin-2 (1H)-one], the EC50 lay within 0.001 to 1 µM.

For the compound `COc1ccc(Cn2cc(-c3cc(C(F)(F)F)nc([S+](C)[O-])n3)ccc2=O)cc1OC` (stereo not shown) [Compound 128, 1-(3,4-dimethoxybenzyl)-5-(2-(methylsulfinyl)-6-(trifluoromethyl)pyrimidin-4-yl)pyridin-2 (1H)-one], the concentration for a half-maximal effect (EC50) was in the range of 0.001 to 1 µM.

As for `COc1ccc(Cn2cc(-c3cc(C(F)F)nc(S(=O)(=O)CCCS(=O)(=O)c4nc(-c5ccc(=O)n(Cc6ccc(OC)c(OC)c6)c5)cc(C(F)F)n4)n3)ccc2=O)cc1OC` [Compound 186, 5,5′-(2,2′-(propane-1,3-diyldisulfonyl)bis(6-(difluoromethyl)pyrimidine-4,2-diyl))bis(1-(3,4-dimethoxybenzyl)pyridin-2 (1H)-one)], the half-maximal effective concentration (EC50) lay within 0.001 to 1 µM.

For `COc1ccc(Cn2cc(-c3cc(C(F)F)nc(S(=O)(=O)CCC(Cl)c4ccccc4)n3)ccc2=O)cc1OC` (stereo not shown) [Compound 279, 5-(2-((3-chloro-3-phenylpropyl)sulfonyl)-6-(difluoromethyl)pyrimidin-4-yl)-1-(3,4-dimethoxybenzyl)pyridin-2 (1H)-one], the half-maximal effective concentration (EC50) was in the range of 0.001 to 1 µM.

Turning to `C#Cc1ccc(-c2cc(C(F)(F)F)nc(S(C)(=O)=O)n2)cc1` [Compound 49, 4-(4-ethynylphenyl)-2-(methylsulfonyl)-6-(trifluoromethyl)pyrimidine], the half-maximal effective concentration (EC50) was less than 100 µM.

As to `O=c1c(F)cc(-c2cc(CF)nc(S(=O)(=O)CCC(OCc3ccccc3F)c3ccccc3)n2)cn1Cc1ccc2c(c1)OCO2` (stereo not shown) [Compound 335, 1-(benzo[d][1,3]dioxol-5-ylmethyl)-3-fluoro-5-(2-((3-((2-fluorobenzyl)oxy)-3-phenylpropyl)sulfonyl)-6-(fluoromethyl)pyrimidin-4-yl)pyridin-2 (1H)-one], the 50% effective concentration (EC50) is 0.001 to 1 µM.

As to `COc1ccc(Cn2cc(-c3cc(C(F)F)nc(S(=O)(=O)CCC(OCc4ccc(F)cc4F)c4ccccc4)n3)ccc2=O)cc1F` (stereo not shown) [Compound 286, 5-(2-(3-(2,4-difluorobenzyloxy)-3-phenylpropylsulfonyl)-6-(difluoromethyl)pyrimidin-4-yl)-1-(3-fluoro-4-methoxybenzyl)pyridin-2 (1H)-one], the half-maximal effective concentration (EC50) lay in the range of 0.001 to 1 µM.

In the case of `COc1ccc(Cn2cc(-c3cc(C(F)(F)F)nc(S(C)(=O)=O)n3)ccc2=O)cc1OC` [Compound 127, 1-(3,4-dimethoxybenzyl)-5-(2-(methylsulfonyl)-6-(trifluoromethyl)pyrimidin-4-yl)pyridin-2 (1H)-one], the EC50 is 0.001 to 1 µM.

As for `COc1ccc(Cn2cc(-c3cc(C(F)F)nc(S(C)(=O)=O)n3)ccc2=O)cc1F` [Compound 167, 5-(6-(difluoromethyl)-2-(methylsulfonyl)pyrimidin-4-yl)-1-(3-fluoro-4-methoxybenzyl)pyridin-2 (11H)-one], the EC50 lay within 0.001 to 1 µM.

On to `CCOc1cccc(Cn2cc(-c3cc(C(F)(F)F)nc(S(C)(=O)=O)n3)ccc2=O)c1` [Compound 112, 1-(3-ethoxybenzyl)-5-(2-(methylsulfonyl)-6-(trifluoromethyl)pyrimidin-4-yl)pyridin-2 (1H)-one], for which the EC50 was in the range of 0.001 to 1 µM.

For the compound `CNC(=O)c1ccccc1-c1cc(C(F)(F)F)nc(S(C)(=O)=O)n1` [Compound 67, N-methyl-2-(2-(methylsulfonyl)-6-(trifluoromethyl)pyrimidin-4-yl)benzamide], the EC50 is less than 100 µM.

Turning to `COc1ccc(Cn2cc(-c3cc(C)nc([S+]([O-])CCC(OCc4ccccc4)c4ccccc4)n3)ccc2=O)cc1OC` (stereo not shown) [Compound 294, 5-(2-(3-(benzyloxy)-3-phenylpropylsulfinyl)-6-methylpyrimidin-4-yl)-1-(3,4-dimethoxybenzyl)pyridin-2 (1H)-one], the concentration for a half-maximal effect (EC50) lay in the range of 0.001 to 1 µM.

As to `COC(=O)c1ccccc1-c1cc(C(F)(F)F)nc([S+](C)[O-])n1` (stereo not shown) [Compound 59, methyl 2-(2-(methylsulfinyl)-6-(trifluoromethyl)pyrimidin-4-yl)benzoate], the EC50 lay within 1 to 10 µM.

As to `COc1ccc(Cn2cc(-c3cc(C(F)(F)F)nc(S(C)(=O)=O)n3)ccc2=O)cc1` [Compound 110, 1-(4-Methoxybenzyl)-5-(2-(methylsulfonyl)-6-(trifluoromethyl)pyrimidin-4-yl)pyridin-2 (1H)-one], the concentration for a half-maximal effect (EC50) fell in the range of 0.001 to 1 µM.

Turning to `COc1cccc(Cn2cc(-c3cc(C(F)(F)F)nc(S(C)(=O)=O)n3)ccc2=O)c1` [Compound 109, 1-(3-methoxybenzyl)-5-(2-(methylsulfonyl)-6-(trifluoromethyl)pyrimidin-4-yl)pyridin-2 (1H)-one], the EC50 is 0.001 to 1 µM.

Consider `C#CCn1cc(-c2cc(C(F)(F)F)nc(S(C)(=O)=O)n2)ccc1=O` [Compound 100, 5-(2-(methylsulfonyl)-6-(trifluoromethyl)pyrimidin-4-yl)-1-(prop-2-yn-1-yl) pyridin-2 (1H)-one], for which the EC50 is 0.001 to 1 µM.

For `COC(=O)c1ccc(-c2cc(C(F)(F)F)nc(S(C)(=O)=O)n2)cc1` [Compound 61, methyl 4-(2-(methylsulfonyl)-6-(trifluoromethyl)pyrimidin-4-yl)benzoate], the EC50 is less than 100 µM.

Source of the values: patent publication US11725000B2, “Apoptosis inhibitors” (National Institute of Biological Sciences, Beijing, priority 2017, dated 2023).
